Experimental data as given in patent US20220305012A1, “L[…] TREATING SLEEP ISSUES” (EISAI R&D MANAGEMENT CO., LTD., priority 2019, published 2022).

Tests used:
Format in all cases: in vivo, human
[1] = tested on: Subjects Having Insomnia Disorder; assay: Example 2: postural stability, body sway upon awakening in morning
Source text: Subjects were provided with a sleep diary and trained on how to record entries. After subjects completed the sleep diary on 7 consecutive mornings, and provided that the subject was still eligible to participate in the study, they attended a second clinical meeting between 10 and 17 days before the randomization phase. The subject was then fitted with a polysomnogram and trained in how to complete the postural stability assessment and cognitive performance assessment battery. Subjects then underwent an 8-hour polysomnogram recording. Within 5 minutes of waking, the postural stability assessment and cognitive assessment battery were conducted on the subject.
(§1) Within 5 minutes of the subject's mean habitual bedtime, study drug was administered and an overnight polysomnogram recording was initiated. At completion of the recording the following morning (Day 2), postural stability and cognitive performance were assessed. On the Day 2 evening, subjects returned to the clinic and a blood sample was collected before administering study drug, and then study drug was administered within 5 minutes of the subject's mean habitual bedtime. Again, a polysomnogram recording was initiated. The next morning (Day 3), postural stability and cognitive performance were assessed. A blood sample was also collected.
(§2) On Day 29, subjects returned to the clinic. Study drug was administered within 5 minutes of the subject's mean habitual bedtime and a polysomnogram recording was conducted. On the following morning (Day 30), postural stability and cognitive performance were assessed. After 1.5 hours of waketime, subjects rated their morning sleepiness level.
(§3) On the evening of Day 30, subjects returned to the clinic. A pre-dose blood sample was collected and study drug was again administered within 5 minutes of the subject's mean habitual bedtime. A polysomnogram recording was initiated. The following morning (Day 31), postural stability and cognitive performance were assessed and a blood sample was obtained. The ISI, FSS, EQ-5D-3L and PGI-Insomnia were administered. Blood and urine samples were collected for routine safety assessment. An electrocardiogram was performed, and vital signs and weight were assessed. The eC-SSRS was then administered to the subject. At 1.5 hours after waketime, subjects rated their morning sleepiness level.
An exemplary additional secondary endpoint is the change from baseline on the postural stability test of mean units of body sway on Days 2 and 3 after administration of 5 mg or 10 mg of lemborexant compared to zolpidem.

[2] = tested on: Subjects Having Insomnia Disorder; assay: Example 2: subjective total sleep time (sTST), sleep diary
Source text: As used herein, the term “subjective total sleep time”, abbreviated as “sTST”, means the derived minutes of sleep from sleep onset until the time the subject stopped trying to sleep for the night. In some embodiments, sTST is derived from data entered in a subject's Sleep Diary.
(§4) In some embodiments, sleep diaries were used to assess sleep parameters reported by subjects (i.e., subjective assessments) including subjective sleep onset latency (sSOL), subjective sleep efficiency (sSE), subjective WASO (sWASO), and subjective total sleep time (sTST). Subjects were instructed to complete the Sleep Diary developed based on the consensus Sleep Diary as described in Carney et al., “The consensus sleep diary: standardizing prospective sleep self-monitoring,” Sleep 2012; 35(2):287-302. In some embodiments, the Sleep Diary was used to assess the subject's global perception of quality of sleep on the previous night with the following question: “How would you rate the quality of your sleep last night?” Subjects rated the quality of their sleep on a scale from 1 to 9, with 1 being extremely poor and 9 being extremely good. In some embodiments, the Sleep Diary was used to assess subjective ratings of morning sleepiness with the following question: “How alert/sleepy do you feel this morning?” Subjects rated their sleepiness/alertness level on a Likert scale from 1 to 9, with 1 being extremely sleepy and 9 being extremely alert.
sTST—subjective total sleep time: derived minutes of sleep from sleep onset until the time the subject stopped trying to sleep for the night.
(§5) The treatment period lasted for 31 days. Subjects were randomized in a double-blind manner and received placebo, a tablet containing 5 mg of lemborexant, a tablet containing 10 mg of lemborexant, or a tablet containing 6.25 mg of zolpidem ER.
(§6) Once home, the subject ingested study drug each night prior to bedtime and completed their sleep diary within 1 hour of waketime.

[3] = tested on: Subjects Having Insomnia Disorder; assay: Example 2: wake after sleep onset in the second half of the night (WASO2H), polysomnography
Protocol: In some embodiments, a sleep parameter is determined objectively using polysomnography. Polysomnography is the monitoring of multiple electrophysiological parameters during sleep and generally includes measurement of EEG activity, electro-oculographic activity and electromyographic activity, as well as other measurements.
WASO2H: wake after sleep onset in the second half of the night: minutes of wake during the interval from 240 minutes after lights off until lights on.
as §5, §1, §2, §3
Another key secondary endpoint was to determine the change from baseline for mean wake after sleep onset in the second half of the night on Days 29 and 30 after administration of 5 mg or 10 mg of lemborexant compared to administration of 6.25 mg of zolpidem ER.

[4] = tested on: Subjects Having Insomnia Disorder; assay: Example 2: subjective sleep onset latency (sSOL), sleep diary
Source text: As used herein, the term “subjective sleep onset latency”, abbreviated as “sSOL”, means the estimated number of minutes from the time that the subject attempted to sleep until sleep onset. In some embodiments, sSOL is derived from data entered in a subject's Sleep Diary.
as §4
sSOL—subjective sleep onset latency: estimated minutes from the time that the subject attempted to sleep until sleep onset.
as §5, §6

[5] = First 7 Nights of Treatment, Lemborexant 5 mg
[6] = First 7 Nights of Treatment, Lemborexant 10 mg
[7] = Last 7 Nights of Treatment, Lemborexant 5 mg
[8] = Last 7 Nights of Treatment, Lemborexant 10 mg
[9] = 5 mg, First 7 Nights of Treatment
[10] = 5 mg, Last 7 Nights of Treatment
[11] = 10 mg, First 7 Nights of Treatment
[12] = 10 mg, Last 7 Nights of Treatment

## Cc1ncc(OC[C@@]2(c3cccc(F)c3)C[C@H]2C(=O)Nc2ccc(F)cn2)c(C)n1 [Lemborexant, (1R,2S)-2-(((2,4-dimethylpyrimidin-5-yl)oxy)methyl)-2-(3-fluorophenyl)-N-(5-fluoropyridin-2-yl)cyclopropanecarboxamide]
[1]; Days 2/3, Lemborexant 5 mg
  Body Sway Upon Awakening in Morning, Change from Study Baseline, Mean (SD): −0.82 ⅓ degree angle of arc
  Body Sway Upon Awakening in Morning, Change from Study Baseline, Median: −0.50 ⅓ degree angle of arc
  Body Sway Upon Awakening in Morning, Mean (SD): 25.73 ⅓ degree angle of arc
  Body Sway Upon Awakening in Morning, Median: 21.00 ⅓ degree angle of arc
[1]; Days 2/3, Lemborexant 10 mg
  Body Sway Upon Awakening in Morning, Change from Study Baseline, Mean (SD): 0.56 ⅓ degree angle of arc
  Body Sway Upon Awakening in Morning, Change from Study Baseline, Median: 0.50 ⅓ degree angle of arc
  Body Sway Upon Awakening in Morning, Mean (SD): 24.36 ⅓ degree angle of arc
  Body Sway Upon Awakening in Morning, Median: 20.00 ⅓ degree angle of arc
[1]; Days 30/31, Lemborexant 5 mg
  Body Sway Upon Awakening in Morning, Change from Baseline, Mean (SD): −0.85 ⅓ degree angle of arc
  Body Sway Upon Awakening in Morning, Change from Baseline, Median: −0.50 ⅓ degree angle of arc
  Body Sway Upon Awakening in Morning, Mean (SD): 25.10 ⅓ degree angle of arc
  Body Sway Upon Awakening in Morning, Median: 20.50 ⅓ degree angle of arc
[1]; Days 30/31, Lemborexant 10 mg
  Body Sway Upon Awakening in Morning, Change from Baseline, Mean (SD): 0.48 ⅓ degree angle of arc
  Body Sway Upon Awakening in Morning, Change from Baseline, Median: 0.50 ⅓ degree angle of arc
  Body Sway Upon Awakening in Morning, Mean (SD): 22.76 ⅓ degree angle of arc
  Body Sway Upon Awakening in Morning, Median: 18.00 ⅓ degree angle of arc
[1]; Table 24
  effects on postural stability compared to placebo: no significant effects on postural stability compared to placebo
[1]; all lemborexant treatment groups, relative to baseline, placebo and zolpidem treatment groups (Table 24)
  body sway: reduced
[2]; 10 mg, relative to baseline, placebo and zolpidem treatment groups (Table 21)
  mean subjective total sleep time: increased
[2]; [5]
  Subjective Total Sleep Time, Change from Study Baseline, Mean (SD): 50.30 (60.065)
  Subjective Total Sleep Time, Mean (SD): 322.66 (89.706)
  Subjective Total Sleep Time, Model-adjusted change from baseline: 51.14
[2]; [6]
  Subjective Total Sleep Time, Change from Study Baseline, Mean (SD): 67.80 (71.134)
  Subjective Total Sleep Time, Mean (SD): 332.92 (91.538)
  Subjective Total Sleep Time, Model-adjusted change from baseline: 66.59
[2]; [7]
  Subjective Total Sleep Time, Change from Study Baseline, Mean (SD): 62.41 (68.555)
  Subjective Total Sleep Time, Mean (SD): 334.22 (94.339)
  Subjective Total Sleep Time, Model-adjusted change from baseline: 64.22
[2]; [8]
  Subjective Total Sleep Time, Change from Study Baseline, Mean (SD): 79.95 (81.211)
  Subjective Total Sleep Time, Mean (SD): 343.68 (95.785)
  Subjective Total Sleep Time, Model-adjusted change from baseline: 78.47
[3]; Days 1/2, Lemborexant 5 mg
  Wake After Sleep Onset in the Second Half of the Night, Change from Study Baseline, Mean (SD): −30.28 (32.056)
  Wake After Sleep Onset in the Second Half of the Night, Change from Study Baseline, Median: −27.63
  Wake After Sleep Onset in the Second Half of the Night, Mean (SD): 46.32 (25.600)
  Wake After Sleep Onset in the Second Half of the Night, Median: 40.88
[3]; Days 1/2, Lemborexant 10 mg
  Wake After Sleep Onset in the Second Half of the Night, Change from Study Baseline, Mean (SD): −37.10 (30.815)
  Wake After Sleep Onset in the Second Half of the Night, Change from Study Baseline, Median: −32.00
  Wake After Sleep Onset in the Second Half of the Night, Mean (SD): 39.78 (23.709)
  Wake After Sleep Onset in the Second Half of the Night, Median: 34.00
[3]; Days 29/30, Lemborexant 5 mg
  Wake After Sleep Onset in the Second Half of the Night, Change from Study Baseline, LSM treatment difference: Lemborexant-Zolpidem: −6.65 (2.298)
  Wake After Sleep Onset in the Second Half of the Night, Change from Study Baseline, Mean (SD): −27.19 (33.047)
  Wake After Sleep Onset in the Second Half of the Night, Change from Study Baseline, Median: −25.63
  Wake After Sleep Onset in the Second Half of the Night, Mean (SD): 49.11 (28.179)
  Wake After Sleep Onset in the Second Half of the Night, Median: 42.13
[3]; Days 29/30, Lemborexant 10 mg
  Wake After Sleep Onset in the Second Half of the Night, Change from Study Baseline, LSM treatment difference: Lemborexant-Zolpidem: −8.00 (2.309)
  Wake After Sleep Onset in the Second Half of the Night, Change from Study Baseline, Median: −27.25
  Wake After Sleep Onset in the Second Half of the Night, Mean (SD): 48.15 (27.844)
  Wake After Sleep Onset in the Second Half of the Night, Median: 41.75
[3]; all lemborexant treatment groups, relative to baseline, placebo and zolpidem treatment groups (Table 16)
  mean wake after sleep onset in the second half of the night: reduced
[4]; [9]
  sSOL Change from Study Baseline, Mean (SD): −22.54 (32.812) minutes
  sSOL Change from Study Baseline, Median: -14.86 min
  sSOL, Mean (SD): 42.39 (28.075) minutes
  sSOL, Median: 29.64 min
[4]; [10]
  sSOL Change from Study Baseline, Mean (SD): −25.20 (34.854) minutes
  sSOL Change from Study Baseline, Median: -18.54 min
  sSOL, Mean (SD): 38.80 (28.028) minutes
  sSOL, Median: 30.36 min
[4]; 5 mg, Study Baseline
  sSOL, Mean (SD): 65.79 (43.530) minutes
  sSOL, Median: 58.57 min
[4]; [11]
  sSOL Change from Study Baseline, Mean (SD): −21.88 (29.269) minutes
  sSOL Change from Study Baseline, Median: -15.00 min
  sSOL, Mean (SD): 38.64 (32.092) minutes
[4]; [12]
  sSOL Change from Study Baseline, Mean (SD): −24.79 (34.068) minutes
  sSOL Change from Study Baseline, Median: -17.14 min
  sSOL, Mean (SD): 36.51 (31.059) minutes
  sSOL, Median: 27.50 min
[4]; 10 mg, Study Baseline
  sSOL, Mean (SD): 60.88 (42.514) minutes
  sSOL, Median: 53.57 min
[4]; all lemborexant treatment groups, relative to baseline, placebo and zolpidem treatment groups (Table 18)
  mean subjective sleep onset latency: reduced
